Source: patent US5985926A, “Method for inhibiting intracellular viral replication” (Cell Therapeutics, Inc., priority 1997, dated 1999)

Assays:
[1] = tested on: 293-EBNA cells
[2] = tested on: HIV-LTR promoter (tat transactivation) in 293-EBNA cells; assay: AP reporter gene expression from HIV-LTR promoter with tat expression vector, 293-EBNA cells; type: cell-based, HIV; human cells; details: 293-EBNA cells, HIV promoter, in words
Text: The plasmid construct, pHIV.AP, using the human immunodeficiency virus (HIV) long terminal repeat (LTR) promoter (derived from pU3R-III CAT, Sodroski et al., Science 227:171, 1985) to direct the expression of the sPAP reporter gene, was made by replacing the CMV promoter region from pCMV.AP with the HIV-LTR promoter. PHIV.AP was co-transfected with pSV2tat72, an expression vector for the 72 amino acids tat protein from HIV (Frankel and Pabo, Cell 55:1189-1193, 1988), into 293-EBNA cells (Invitrogen). The cultured cells were treated with various concentrations of the compounds. The expression of the alkaline phosphatase (AP) reporter gene in the individual cultures was measured by following change in absorbance at 405 nm of the cell conditioned media in the presence of a suitable substrate (e.g., ortho-nitrophenol phosphate) (Berger et al., Gene 66:1-10, 1988).
We set up a cell-based system with a cell line cotransfected with an expression plasmid using HIV-1-LTR promoter to direct synthesis of AP reporter gene and an expression plasmid to direct synthesis of the first 72 amino acids of tat protein. Plasmid pREP7 (Invitrogen) was converted to pREP7b by deleting 2,040 bp EBNA-1 coding region and by replacing the pBR322 origin of replication (ori) with the pBluescript KS (Stratagene) ori region. The cDNA for secreted placental alkaline phosphatase (AP) was generated by PCR with the primers (5'-[…]-3')(SEQ ID NO. 3) and (5'-[…]-3') (SEQ ID NO. 4)using the plasmid pGEM-4Z/PLAP489 (American Type Culture Collection) as the template. The 2,000 bp Xba I-Sal I fragment obtained was ligated into a Nhe I/Xho I vector derived from pREP7b to generate the plasmid pREP7b.AP. The 44 bp Xba I-Bgl II fragment from plasmid pMEP4 (Invitrogen)and the 36 bp BamH I-Kpn I fragment from pREP7 were ligated into the Xba I-Kpn I vector fragment from pREP7b.AP to generate the plasmid pMCS.AP. The 720 bp Xho I-Hind III fragment encoding the HIV-LTR promoter from the plasmid pU3R-III-CAT (Sodroski et al., Science 227:171-173, 1985) was ligated into the Xho I-Hind III vector fragment of PMCS.AP to generate the plasmid pHIV.AP. The CMV promoter was derived from the 600 bp Spe I-Asp718 I fragment from pCEP4 (Invitrogen). The 360 bp SV40 early promoter fragments were produced from pSV2tat72 (Frankel et al., Cell 55:1189-1193,1988) by PCR using the primers (5'-[…]-3') (SEQ ID NO. 5) and (5'-[…]-3') (SEQ ID NO. 6). The 480 bp phosphoglycerate kinase (PGK) promoter fragment was amplified from human placental genomic DNA (Promega, Madison, Wis.) based on published sequence (Pfeifer et al., Science 246:810-813, 1990) using the primers (5'-[…]-3') (SEQ ID NO. 7) and (5'-[…]-3') (SEQ ID NO. 8). The above fragments were ligated into the Xba I-Asp718 I vector fragment of pHIV.AP to generate pHIV2.AP, pHIV3.AP, pCMV.AP, pSVE.AP and PPGK.AP respectively. The tat-expression plasmid directed by HIV-LTR promoter, pHIV.tat, was generated by inserting the 400 bp EcoRV-HindIII fragment from pHIV.AP into the PvuII-HindIII vector fragment from pSV2tat72 (Frankel et al., Cell 55:1189-1193, 1988).
Transient transfections with various expression plasmids were performed on a human kidney embryonic cell line 293-EBNA (Invitrogen) using the cationic lipid DOTAP (Boehringer Mannheim). The cell culture media were changed 24 hr after transfection into a serum-free medium AIM V (Life Technologies) before addition of compounds or TNF-α (PeproTech) at the appropriate concentrations. AP activity measured by a colorimetric assay (Berger et al., Gene 66:1-10, 1988) was performed 19-24 hr later.

[3] = tested on: 293-EBNA cells; assay: Viability of 293-EBNA cells, Alamar Blue; type: cell-based, human
Procedure: (§1) Cell viability was measured by a colorimetric assay that uses Alamar Blue dye (Alamar, Inc.) to report cell proliferation, viability and cytotoxicity. This vital dye indicates cell activity by serving as substrate for mitochrondrial dehydrogenases for the formation of soluble dyes which can be quantitated by determining the difference in absorbance between A570 and A600 using a plate reader.
as §1, with “[…]” for “colorimetric”
This example illustrates that CT2576 suppressed both tat-dependent and TNF-α induced HIV-LTR transcription with an IC50 of approximately 10 μM. Study of the effects of CT2576 on cell toxicity was performed using the Alamar Blue™ dye (Alamar Biosciences) according to the manufacturer's instructions. CT2576 was not toxic to 293-EBNA cells at concentrations up to 35 μM. To show CT2576 can inhibit HIV expression, CT2576 was tested for the ability to block HIV p24 antigen expression in chronically or acutely infected cells. Specifically, CT2576 inhibited the TNF-α and IL-6 induced and the constitutive expression of HIV in the chronically infected U1 cells and in peripheral blood lymphocytes (PBL) freshly infected with a HIV strain from a clinical isolate with an IC50 of approximately 1 μM. Pharmacological inhibition of synthesis of selected PL may therefore be a novel therapeutic approach to suppression of HIV replication.

[4] = tested on: CMV promoter in 293-EBNA cells; assay: AP reporter gene expression from CMV promoter, 293-EBNA cells stably transfected with pCMV.AP; type: cell-based, human cytomegalovirus; human cells
Procedure: An assay for measuring the anti-viral activity of the compounds involves testing the abilities of the compounds to inhibit gene expression directed by specific viral promoters in cell lines. Specifically, a plasmid construct, pCMV.AP, using the human cytomegalovirus (CMV) enhancer and promoter to direct the expression of the secreted human placental alkaline phosphatase reporter gene were transformed into a tumor cell line (e.g., 293-EBNA cells). The cultured cells were treated with various concentrations of the compounds. The expression of the alkaline phosphatase (AP) reporter gene in the individual cultures can then be measured by following the change in absorbance at A405 of the cell conditioned media in the presence of a suitable substrate (e.g., ortho-nitrophenol phosphate) (Berger et al., Gene 66:1,1988).
The construction of expression vectors for secreted placental alkaline phosphatase (sPAP) was performed by obtaining a mammalian episomal expression vector pBL3, derived from the plasmids pMEP4 and pCEP4 (Invitrogen Corp). Specifically, a 600 bp Spe I--Kpn I fragment spanning the CMV promoter from pCEP4 and a 9500 bp Xba I--Kpn I vector fragment from pMEP4 were isolated and ligated together to form pBL3. Full length sPAP cDNA was amplified by PCR using the plasmid pGEM4Z/SEAP (ATCC) as template with primers 5'-[…]-3' (SEQ ID NO. 1) and 5'-[…]-3' (SEQ ID NO. 2). The PCR product was then digested with Xba I and Sal I and inserted between the Nhe I site and the Xho I site within the multiple cloning region of pBL3. The resulting plasmid was designated as PCMV.AP.

[5] = tested on: U1 cells; assay: Cytotoxicity in U1 cells; type: cell-based, human
Text: We studied the effect of CT-2576 on HIV expression in a chronically HIV-1 infected promonocytic U1 cell line (Folks et al., Science 238:800-802, 1987). […] TNF-α and other cytokines can induce HIV expression in U1 cells. U1 cells also express HIV constitutively when grown to a relatively high density. […] An inhibitor of viral reverse transcriptase is expected to only protect new cells from becoming infected but not to affect viral production from cells already infected with HIV. […] While TNF-α induces HIV expression through activation of NFκB, IL-6 and IL-1 also stimulates HIV expression through other pathways independent of NFκB activation in U1 cells.

[6] = tested on: AP mRNA in 293tat cells; assay: AP mRNA level in 293tat cells, Northern blot; type: cell-based, human; details: with TNF-α or IL-1β
Procedure: (§2) Nuclear extracts (A) from 293tat cells were tested by EMSA for activation of NFκB. A radiolabeled 40-mer covering the NFκB sequences in the HIV promoter was used as a probe. Cells were incubated with CT2576 at 12 μM, human TNF-α at 40 ng/ml or IL-1β at 1 ng/ml, or pre-incubated for 30 min. with CT2576 and then stimulated with TNF-α or IL-1β for 18 hr prior to making extracts. RNA was extracted from 293tat cells (B) after treatment with CT2576 without or with TNF-α or IL-1β for 18 hr. Northern blots analysis were performed using probes derived from AP cDNA and G3PDH cDNA as a control for normalization of mRNA level. AP activity was determined in cell supernatants from the various samples.
(§3) NFκB binding activity in nuclear extracts (Dignam et al., Nucleic Acids Res. 11:1475-1489, 1983) of cells was measured by electrophoretic mobility-shift assay (EMSA) (Carthew et al., Cell 43:439-448, 1985) using 5'-labeled double-stranded synthetic DNA with two NF-κB motifs. Northern blot analysis was performed with total RNA run on 1% agarose/formaldehyde gel and probed with ^32 P-labeled cDNA of AP and glyceraldehyde-3-phosphate dehydrogenase (G3PDH).

[7] = tested on: NFκB; assay: NFκB activation in 293tat cells, electrophoretic mobility shift assay; type: cell-based, human; details: CT2576 12 μM, TNF-α 40 ng/ml or IL-1β 1 ng/ml
Procedure: as §2, §3

CCCCCCCCNCC(O)CCCCCCCCCn1c(=O)ccn(C)c1=O (stereo not drawn) [CT1827, 3-(11-octylamino-10-hydroxyundecyl)-1-methyluracil]
effect on cell viability / cytotoxicity [1]: minimal cytotoxic effects | inhibition of AP expression (HIV-LTR promoter) [2]: inhibit HIV promoter driven expression | cytotoxic effect on 293-EBNA cells (Alamar Blue) [3]: no significant cytotoxic effect | IC50 ([4]; Homo sapiens, 293-EBNA, FIG. 8, read-out: concentration inhibiting AP activity by 50% (CMV assay)): 2 to 6 µM | inhibition of AP expression (CMV promoter) ([4]; in words): inhibit CMV promoter driven expression | cytotoxicity in U1 cells at 25 μM ([5]; 25 μM, FIG. 12 bottom panel, TNFα): some cytotoxicity | cytotoxicity in U1 cells ([5]; FIG. 12 top panel, constitutive): some cytotoxicity

IL-1β: cytokine used as stimulant
AP transcript / mRNA steady-state level [6]: induction of AP transcripts | activation of NFκB [7]: NFκB was activated
